Experimental data taken from publication PMC9873282, “Design, synthesis and evaluation of quinoline-O-carbamate derivatives as multifunctional agents for the treatment of Alzheimer’s disease” (Journal of Enzyme Inhibition and Medicinal Chemistry, 2023).
Values joined by “and” are separate entries in the source; they are usually repeats but may differ in a detail not shown here. Identical values can stand only once. Like-named read-outs stand apart in the source and are kept apart here.

Columns and labels:
PC12 cells = assay: Cytotoxicity on PC12 cells; type: cell-based; details: at concentration below 40 µM
Procedure: (§1) The neuroprotective effect of compounds 3a, 3c, 3e, 3f, 3k, 3m, and 3n on Aβ25–35-induced PC12 cells injury were evaluated using CCK-8 assay. […] Furthermore, as shown in Figure 12(B), when PC12 cells were exposed to 25 µM Aβ25-35, the cell viability sharply declined to 57.3% (p < 0.01) compared with untreated group.
(§2) The PC12 cells during the logarithmic growth phase were digested and centrifuged with pancreatic enzyme solution, the cells were resuspended by adding the prepared media solution, and piped evenly with a pipette to seed in a 96-well cell culture plate (cell concentration adjusted to 2.0 × 10^4 cell·mL^−1). Each well was added 100 µL complete medium was added to each well and incubated at 37 °C and 5% CO2 for 24 h.

IL-1β = IL-1β production in LPS-stimulated BV-2 cells (ELISA); type: cell-based; details: 1 µg/mL LPS 24 h
Procedure: (§3) Firstly, the cytotoxicity of compounds 3a, 3c, 3e, 3f, 3k, 3m and 3n were tested using CCK8 assay.
(§4) BV-2 cells (2 × 10^5 cells/well) were seeded in a 24-well cell culture plates. The cells were divided into blank control group, model group (1 µg/mL LPS), LPS + 2 µM compound group, LPS + 1 µM compound group. Each drug group was pre-treated with corresponding concentration of drug solution for 8 h. After 8 h, the culture medium was aspirated out. Except for the blank control group, which was added with DMEM medium, the other groups were stimulated with 1 µg/mL LPS for 24 h. Then cell supernatant was aspirated and centrifuged at 3000 rpm for 3 min. The content of NO in cell culture supernatant was determined by Griess method, and the levels of cytokines IL-6 and IL-1β in cell culture supernatant were determined by IL-6 ELISA kit and IL-1β ELISA kit, respectively.

BV-2 cells = assay: Cytotoxicity on BV-2 cells (CCK8 assay); type: cell-based; details: compounds at 2 µM
Procedure: as §3
BV-2 cells were cultured in DMEM containing 10% foetal bovine serum, 100 U/mL penicillin, 100 U/mL streptomycin, and 1% nonessential amino acid at 37 °C with 5% CO2.
BV-2 cells in logarithmic growth stage were digested and centrifuged, and then resuspended in DMEM medium containing 1% penicillin-streptomycin and 10% foetal bovine serum. The cells was adjusted to 1.2 × 10^4 cells/well, and then seeded evenly in 96-well cell culture plates. The cells were incubated for 36 h at 37 °C with 5% CO2. After incubation, the cells were added to different concentrations (10 and 2 µM) of tested compounds, and incubated for 24 h at 37 °C with 5% CO2. Then, 10 µL CCK-8 solution was added to each well, and incubated for another 1 h at 37 °C with 5% CO2. The OD values were tested at […]. The cell viability (%) = {(ODdrug−ODblank)}/{(ODcontrol−ODblank)} × 100%.

eqBuChE = biological target: T1, eqBuChE (Equus caballus, UniProt P81908); assay: biochemical; design: species or system equine; details: for IC50: BuChE from equine serum; for SI = IC50 (AChE)/IC50 (BuChE): eeAChE/eqBuChE; for inhibition at 25 µM: read-out: eqBuChE inhibition rate
T1 construct: eqBuChE, from equine serum; purchased Sigma Aldrich; host or cells: equine serum (natural source)
Procedure: (§5) The inhibitory activities of the synthesised compounds against eeAChE (from electric eel) and eqBuChE (from equine serum) were tested by the modified Ellman’s method[26]^,[27]. […] The determination of AChE and BuChE inhibitory potency of the synthesised compounds were evaluated by Ellman assay, the detailed procedure referred to our previous work[26]^,[27].

eeAChE = biological target: T2, eeAChE (Electrophorus electricus, UniProt O42275); assay: biochemical; design: species or system electric eel
T2 construct: eeAChE, from the electric eel; purchased Sigma Aldrich; host or cells: electric eel (natural source)
Procedure: as §5

[1] = test system: Aβ25-35-induced PC12 cells injury; assay: Neuroprotective effect on Aβ25-35-induced PC12 cells injury (CCK-8); type: cell-based; details: 25 µM Aβ25-35; model cell viability 57.3%
Procedure: as §1
• Preparation of Aβ25-35 aggregation. Aβ25-35 was purchased from sigma. 1 mg Aβ25-35 was dissolved in 943 µL of sterilised deionised water to obtain 1 mM stock solution, aliquoted, –20 °C preservation. Removing the appropriate volume in a 48-well plate and incubated in a 37 °C incubator for two days to allow its ageing to accumulate and produce neurotoxicity. After aggregation was completed, the solution was diluted with PBS to get 25 µM solution of Aβ25-35 aggregation. • Neuroprotective effects of compounds on Aβ25-35-induced PC12 cells injury
as §2
After incubation for 24 h, PC12 cells were divided into blank group, control group, Aβ25-35 model group and tested compounds group (5, 10, 20 µM). Then the original medium was discarded, and 100 µL new complete medium were added to PC12 cells, and the tested compounds group was added to 100 µL complete medium containing different concentrations (5, 10, and 20 µM) of tested compounds, incubated for 2 h at 37 °C, 5% CO2 conditions. After incubation for 2 h, 10 µL Aβ25-35 solution was added to the tested compounds groups and model group (the final concentration of Aβ25-35 was 25 µM), and incubated for 24 h at 37 °C, 5% CO2 conditions, 10 µL CCK-8 was added to each well and further incubated for 1 h at 37 °C and 5% CO2. Finally, the OD value was measured at 450 nm using a microplate reader, and each concentration set three wells. The cell survival rate (%) was determined according to the following formula: cell viability (%) = {(ODdrug−ODblank)}/{(ODcontrol−ODblank)}.

IL-6 = IL-6 production in LPS-stimulated BV-2 cells (ELISA); type: cell-based; details: 1 µM and 2 µM; 1 µg/mL LPS 24 h
Procedure: as §3, §4

NO = NO release in LPS-stimulated BV-2 cells (Griess method); type: cell-based; details: 1 µg/mL LPS 24 h
Procedure: as §3, §4

hBuChE = biological target: T3, hBuChE (Homo sapiens, UniProt P06276); assay: biochemical; details: for IC50: from human serum, read-out: IC50 ± SD hBuChE; for SI = IC50 (AChE)/IC50 (BuChE): hAChE/hBuChE
T3 construct: hBuChE, human serum BuChE; purchased Sigma Aldrich; host or cells: human serum (natural source)
Procedure: (§6) Acetylcholinesterase (eeAChE, from the electric eel; hAChE, from human erythrocytes AChE), butyrylcholinesterase (eqBuChE, from equine serum; hBuChE, human serum BuChE), 5,5′-dithiobis-2-nitrobenzoic acid (Ellman’s reagent, DTNB), acetylthiocholine chloride (ATC), and butyrylthiocholine chloride (BTC) were purchased form Sigma Aldrich. The determination of AChE and BuChE inhibitory potency of the synthesised compounds were evaluated by Ellman assay, the detailed procedure referred to our previous work[26]^,[27].

hAChE = biological target: T4, hAChE (Homo sapiens, UniProt P22303); assay: biochemical; details: from human erythrocytes; read-out: IC50 ± SD hAChE
T4 construct: hAChE, from human erythrocytes AChE; purchased Sigma Aldrich; host or cells: human erythrocytes (natural source)
Procedure: as §6

[2] = AChE from electric eel, read-out: IC50 ± SD eeAChE

T1 sequence (P81908 whole entry): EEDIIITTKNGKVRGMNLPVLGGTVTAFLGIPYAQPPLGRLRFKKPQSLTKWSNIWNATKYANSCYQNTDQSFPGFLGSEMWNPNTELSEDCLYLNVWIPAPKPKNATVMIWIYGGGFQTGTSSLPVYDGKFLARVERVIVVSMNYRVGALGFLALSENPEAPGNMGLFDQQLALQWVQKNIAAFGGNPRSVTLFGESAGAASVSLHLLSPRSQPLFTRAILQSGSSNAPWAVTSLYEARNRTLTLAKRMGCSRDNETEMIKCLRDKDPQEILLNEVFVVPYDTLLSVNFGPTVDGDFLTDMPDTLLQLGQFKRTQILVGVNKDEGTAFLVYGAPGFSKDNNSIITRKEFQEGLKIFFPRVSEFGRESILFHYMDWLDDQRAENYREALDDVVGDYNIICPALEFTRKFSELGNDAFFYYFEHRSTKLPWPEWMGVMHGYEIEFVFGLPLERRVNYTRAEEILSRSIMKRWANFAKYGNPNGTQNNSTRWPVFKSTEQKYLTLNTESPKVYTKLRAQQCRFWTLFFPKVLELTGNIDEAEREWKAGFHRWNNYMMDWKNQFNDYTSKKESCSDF
T2 sequence (O42275 24-633): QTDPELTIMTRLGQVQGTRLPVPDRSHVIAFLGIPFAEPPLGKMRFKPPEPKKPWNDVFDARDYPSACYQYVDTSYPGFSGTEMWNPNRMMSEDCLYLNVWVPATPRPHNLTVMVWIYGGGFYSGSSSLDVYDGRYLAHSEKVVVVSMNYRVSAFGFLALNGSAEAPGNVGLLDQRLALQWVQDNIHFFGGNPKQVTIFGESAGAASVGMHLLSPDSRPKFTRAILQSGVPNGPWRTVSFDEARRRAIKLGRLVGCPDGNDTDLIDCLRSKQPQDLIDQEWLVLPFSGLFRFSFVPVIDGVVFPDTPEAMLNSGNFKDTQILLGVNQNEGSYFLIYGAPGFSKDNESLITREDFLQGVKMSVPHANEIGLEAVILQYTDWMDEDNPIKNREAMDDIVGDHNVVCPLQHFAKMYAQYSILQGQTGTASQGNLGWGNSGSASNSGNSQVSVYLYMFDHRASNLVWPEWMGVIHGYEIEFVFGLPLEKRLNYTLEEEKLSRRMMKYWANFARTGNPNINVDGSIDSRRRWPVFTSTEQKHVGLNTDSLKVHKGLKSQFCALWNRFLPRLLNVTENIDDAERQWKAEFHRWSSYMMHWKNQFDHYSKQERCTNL
T3 sequence (P06276 29-602): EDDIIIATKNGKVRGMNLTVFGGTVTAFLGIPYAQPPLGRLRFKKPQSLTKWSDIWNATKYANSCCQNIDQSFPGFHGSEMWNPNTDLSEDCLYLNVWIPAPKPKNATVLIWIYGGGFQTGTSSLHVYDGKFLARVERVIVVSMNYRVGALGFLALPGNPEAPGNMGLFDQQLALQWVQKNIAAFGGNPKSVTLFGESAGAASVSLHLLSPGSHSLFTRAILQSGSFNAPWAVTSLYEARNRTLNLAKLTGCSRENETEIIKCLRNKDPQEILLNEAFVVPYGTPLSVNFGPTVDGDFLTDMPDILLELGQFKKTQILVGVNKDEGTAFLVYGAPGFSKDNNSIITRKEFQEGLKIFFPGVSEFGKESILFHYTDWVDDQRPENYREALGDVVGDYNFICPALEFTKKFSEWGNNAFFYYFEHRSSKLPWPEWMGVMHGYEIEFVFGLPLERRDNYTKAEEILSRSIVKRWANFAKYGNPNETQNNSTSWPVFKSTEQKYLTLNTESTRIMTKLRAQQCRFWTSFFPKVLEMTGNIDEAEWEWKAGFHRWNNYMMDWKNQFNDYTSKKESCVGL
T4 sequence (P22303 32-617 isoform P22303-2 limits assumed): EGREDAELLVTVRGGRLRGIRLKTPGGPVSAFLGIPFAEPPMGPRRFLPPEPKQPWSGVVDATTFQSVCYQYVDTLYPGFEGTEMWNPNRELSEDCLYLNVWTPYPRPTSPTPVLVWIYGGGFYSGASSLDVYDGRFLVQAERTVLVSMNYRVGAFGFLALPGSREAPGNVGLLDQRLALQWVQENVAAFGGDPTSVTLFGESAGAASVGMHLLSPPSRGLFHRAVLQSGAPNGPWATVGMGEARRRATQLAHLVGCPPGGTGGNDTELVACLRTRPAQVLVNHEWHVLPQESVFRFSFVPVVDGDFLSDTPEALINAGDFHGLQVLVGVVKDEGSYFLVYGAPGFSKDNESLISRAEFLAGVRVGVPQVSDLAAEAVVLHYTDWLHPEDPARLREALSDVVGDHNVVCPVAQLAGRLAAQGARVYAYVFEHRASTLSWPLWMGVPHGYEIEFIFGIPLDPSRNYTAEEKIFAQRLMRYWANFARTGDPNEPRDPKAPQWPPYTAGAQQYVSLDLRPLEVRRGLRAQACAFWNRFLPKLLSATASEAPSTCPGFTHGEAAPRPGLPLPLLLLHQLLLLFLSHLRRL

Structure (SMILES) | IC50 (eqBuChE; IC50 ± SD eqBuChE) | SI = IC50 (AChE)/IC50 (BuChE) (eqBuChE) | IC50 (eeAChE) | IC50 (eqBuChE; read-out: IC50 ± SD eqBuChE) | IC50 (eeAChE; [2]) | further results
CN(C)C(=O)Oc1ccnc2ccccc12 [Compound 3a, Quinolin-4-yl dimethylcarbamate] | 2.83 µM and 2.8 µM | 3.8 | 10.8 ± 0.33 µM | – | – | cytotoxicity on PC12 cells (PC12 cells): did not show any cytotoxicity; levels of IL-1β compared with model group (IL-1β): did not obviously decrease; cell viability of BV-2 cells (BV-2 cells): did not show obvious change; neuroprotective effect on Aβ25-35-induced PC12 cells injury [1]: did not show significant neuroprotective effects; levels of IL-6 compared with model group (IL-6): significantly decreased; release volume of NO (NO): significantly decreased
CCN(CC)C(=O)Oc1ccnc2ccccc12 [Compound 3b, Quinolin-4-yl diethylcarbamate] | – | 11.5 | – | 1.06 µM and 1.1 µM | 12.7 ± 0.13 µM | IC50 (hBuChE): 5.39 µM and 5.4 µM; SI = IC50 (AChE)/IC50 (BuChE) (hBuChE): 5.6; IC50 (hAChE): 30.2 ± 0.61 µM
CCN(C)C(=O)Oc1ccnc2ccccc12 [Compound 3c, Quinolin-4-yl ethyl(methyl)carbamate] | 1.92 µM and 1.9 µM | 6.9 | 13.2 ± 0.51 µM | – | – | cytotoxicity on PC12 cells (PC12 cells): did not show any cytotoxicity; levels of IL-1β compared with model group (IL-1β): did not obviously decrease; cell viability of BV-2 cells (BV-2 cells): did not show obvious change; neuroprotective effect on Aβ25-35-induced PC12 cells injury [1]: did not show significant neuroprotective effects; levels of IL-6 compared with model group (IL-6): significantly decreased; release volume of NO (NO): significantly decreased
O=C(Oc1ccnc2ccccc12)N1CCOCC1 [Compound 3d, Quinolin-4-yl morpholine-4-carboxylate] | – | 18.0 | – | 0.87 ± 0.05 µM | 15.7 ± 0.27 µM | IC50 (hBuChE): 9.46 µM and 9.5 µM; SI = IC50 (AChE)/IC50 (BuChE) (hBuChE): 2.8; IC50 (hAChE): 26.9 ± 0.74 µM
CCN(C)C(=O)Oc1cccc2ncccc12 [Compound 3g, Quinolin-5-yl ethyl(methyl)carbamate] | 2.23 µM and 2.2 µM | 1.4 | 3.2 ± 0.05 µM | – | – | –
O=C(Oc1cccc2ncccc12)N1CCOCC1 [Compound 3h, Quinolin-5-yl morpholine-4-carboxylate] | – | 7.2 | – | 1.76 µM and 1.8 µM | 12.9 ± 0.07 µM | –
CN(C)C(=O)Oc1ccc2ncccc2c1 [Compound 3i, Quinolin-6-yl dimethylcarbamate] | – | – | 14.1 ± 0.43 µM | – | – | inhibition at 25 µM (eqBuChE): 13.8 ± 0.61%
CCN(CC)C(=O)Oc1ccc2ncccc2c1 [Compound 3j, Quinolin-6-yl diethylcarbamate] | – | – | – | – | 12.2 ± 0.19 µM | inhibition at 25 µM (eqBuChE; at 25 μM of compounds): 30.7 ± 1.26%
